This is an account of results in PMC10610505, “Synthesis and Biological Evaluation of Some New 3-Aryl-2-thioxo-2,3-dihydroquinazolin-4(1H)-ones and 3-Aryl-2-(benzylthio)quinazolin-4(3H)-ones as Antioxidants; COX-2, LDHA, α-Glucosidase and α-Amylase Inhibitors; and Anti-Colon Carcinoma and Apoptosis-Inducing Agents” (Pharmaceuticals, 2023).

The target in assay [1] is T1, COX-2 (Homo sapiens, UniProt P35354).
T1 construct: purchased Cayman Chemical Company 701080
T1 sequence (P35354 18-604): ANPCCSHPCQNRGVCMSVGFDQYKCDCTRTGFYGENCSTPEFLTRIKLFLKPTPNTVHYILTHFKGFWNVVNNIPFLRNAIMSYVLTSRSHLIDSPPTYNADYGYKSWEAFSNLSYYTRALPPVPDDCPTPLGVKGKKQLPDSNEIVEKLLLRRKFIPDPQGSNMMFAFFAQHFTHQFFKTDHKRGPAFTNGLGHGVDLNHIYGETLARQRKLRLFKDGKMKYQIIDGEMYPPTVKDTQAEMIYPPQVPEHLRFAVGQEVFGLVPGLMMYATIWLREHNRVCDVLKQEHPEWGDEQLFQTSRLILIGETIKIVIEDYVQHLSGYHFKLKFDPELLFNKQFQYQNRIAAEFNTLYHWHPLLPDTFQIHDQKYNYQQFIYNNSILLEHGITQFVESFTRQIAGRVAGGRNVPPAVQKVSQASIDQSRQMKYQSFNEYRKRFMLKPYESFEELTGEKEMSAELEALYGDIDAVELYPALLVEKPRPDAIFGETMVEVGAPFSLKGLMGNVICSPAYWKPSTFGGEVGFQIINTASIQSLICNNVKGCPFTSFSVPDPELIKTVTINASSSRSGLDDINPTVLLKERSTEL
As to the kind of experiment: COX-2 inhibitory screening assay (Cayman kit). The format is biochemical. Conditions: for Increase in COX-2 inhibitory efficiency by duplicating the concentration: % inhibition at 0.200 mg/mL divided by % inhibition at 0.100 mg/mL; for inhibition at 100 µg/mL: at 0.100 mg/mL; for inhibition at 100 µg/mL / inhibition at 200 µg/mL: read-out: COX-2 mean % inhibition ± SD; for inhibition at 200 µg/mL: at 0.200 mg/mL. The procedure, abridged:
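Human COX-2 with heme preincubated with compound 10 min at 37° C in Tris-HCl pH 8.0 with phenol and EDTA, then arachidonic acid added for 2 min at 37° C. PGF2α, formed by stannous chloride reduction, quantified by enzyme immunoassay at 410 nm; % inhibition versus untreated control.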

In assay [2] the test system is Bax gene. As to the kind of experiment: qRT-PCR expressional level of Bax gene. It is filed as cell-based, human. Particulars: 10 µg/mL, HCT-116 and LoVo cells, vs negative control. The protocol: (§1) Considering these facts, enhancing apoptosis has been extensively studied as a potential drug target in cancer therapy, therefore, in this study, we investigated the effects of the most cytotoxic compounds, 3a and 3f, (at 10 µg/mL, 24 h incubation) on the expressional levels of these apoptotic regulator genes (Bax and Bcl-2) using quantitative reverse transcription–polymerase chain reactions (qRT-PCR).
(§2) Briefly, in a 25 mL flask (1 × 10^6 cells/flask), the human colon cancer cell lines (HCT-116 and LoVo) were grown for 24 h. After replacing the culture media with a medium containing 1% FBS for 24 h, the cells were treated with 10 µg/mL of each tested compound in 2 mL of fresh medium containing 1% FBS, or 0.25% DMSO, which was used as the negative control. The cells were adherent cells and they were detached using trypsin after being washed with ice-cold phosphate-buffered saline (PBS).
(§3) Primers specific for the Bax, Bcl-2 and Caspase-3 genes were designed using the primer blast (https://www.ncbi.nlm.nih.gov/tools/primer-blast/ accessed on 9 January 2023) software. The primers were used in the RT-qPCR analysis to amplify fragments of 100–200 bp in length (Table 11).
(§4) The RNeasy Mini Kit (Qiagen, Hilden, Germany) was used to extract the total RNA. The RNA purity, quality and quantity were checked using a Nanodrop 8000 spectrophotometer (Thermo Fisher Scientific, USA). […]
(In general: In qPCR the cycle at which signal appears reflects the starting amount.)

Assay [3] deals with Bcl-2 gene. As to the kind of experiment: qRT-PCR expressional level of Bcl-2 gene. It is filed as cell-based, human. Conditions: 10 µg/mL, 24 h, HCT-116, vs negative control. The protocol:
as §1, §2, §3, §4

By inhibition is commonly meant how much of the control response was suppressed. Turning to `O=c1c2cc(Cl)ccc2[nH]c(=S)n1-c1ccc([N+](=O)[O-])cc1` [Compound 3f, 6-Chloro-3-(4-nitro-phenyl)-2-thioxo-2,3-dihydro-1H-quinazolin-4-one], in assay [1], the “Increase in COX-2 inhibitory efficiency by duplicating the concentration” value was found to be 2.34 fold, the inhibition at 100 µg/mL is 11.4 ± 0.778% and the inhibition at 200 µg/mL was determined as 26.8 ± 3.89%. In addition, the “Expression level of Bax gene” value in assay [2] is listed as “upregulate”. Also, the “Expressional level of anti-apoptotic gene Bcl-2” value in assay [3] was 0.345 fold.

For orientation: IC50 means the concentration at which inhibition is half-maximal. In the case of `O=c1c2cc(Cl)ccc2[nH]c(=S)n1-c1cccc(C(F)(F)F)c1` [Compound 3a, 6-Chloro-2-thioxo-3-(3-trifluoromethyl-phenyl)-2,3-dihydro-1H-quinazolin-4-one], in assay [1], the “Increase in COX-2 inhibitory efficiency by duplicating the concentration” value is listed as 1.70 fold, the inhibition at 100 µg/mL stood at 57 ± 2.83% and the inhibition at 200 µg/mL amounted to 97 ± 1.34%. This compound gave an IC50 in assay [1] (mean ± SD of three replicates) of 281 µM. In addition, in assay [2], the “Expression level of Bax gene” value was “upregulate”. The “Expressional level of anti-apoptotic gene Bcl-2” value in assay [3] was 0.635 fold.
